These results are taken from patent EP4631969A1, “PEPTIDE FOR CARTILAGE REGENERATION, AND USES THEREOF” (Caregen Co., Ltd., priority 2022, dated 2024).

Where no end group is shown, it is not given here.

For the data set, the system named is Human Adipose-Derived Mesenchymal Stem Cells (AD-MSC). Nature of the data set: Confirmation of cytotoxicity (CCK-8 activity test and SRB staining). In kind it is cell-based. To be noted: about 1 to 200 µg/ml, 7 days of culture; for cytotoxicity: CCK-8; for change in cell morphology: SRB staining, microscope. How it is done: Human Adipose-Derived Mesenchymal Stem Cells (AD-MSC) were treated with Peptide-1 or Peptide-2 to determine whether they were cytotoxic.
Specifically, AD-MSCs were seeded in 96-well plates at a concentration of about 1.5 x 10^3 cells/well and cultured in DMEM medium (about 10 % FBS + DMEM medium) for about 24 hours. […] After 7 days of culture, about 1/10 of the culture medium was treated with a CCK-8 (Dojindo, CCK-8 kit) solution and cultured for about 2 hours. After incubation, the culture medium was sampled and the absorbance was measured at a wavelength of about 450 nm using a microplate reader. After measuring the absorbance, the medium in the culture medium in the 96-well plate was removed, and about 60 µl of 3.7 % formalin was added to the 96-well plate to fix the cells for about 1 minute. After cell fixation, the formalin was removed, and about 70 ul of SRB staining solution (about 0.2 g of Sulforhodamine B sodium salt (sigma, S9012) dissolved in about 100 ml of double-distilled water) was added to the fixed cells, and the cells were stained by culturing overnight at room temperature in a lightblocking condition. After cell staining, the cells were washed with about 1 % acetic acid and dried. The dried cells were observed under a microscope. As control groups, an experimental group (CON) that was not treated with the above peptide and an experimental group (CM) treated with a solution containing about 100 nM dexamethasone, about 50 µM ascorbic acid, about 40 µM proline, about 10 ng/ml TGFβ1, and 1X ITS instead of the above peptide were used.

Take HHEQF [Peptide-2, HHEQF]: the cytotoxicity entry is “no cytotoxicity was caused” and the “change in cell morphology” value was “no change in cell morphology occurred at all concentrations”.
For the substance STGALSTSFTEE [Peptide-1, STGALSTSFTEE], the cytotoxicity entry is on record as “no cytotoxicity was caused” and the “change in cell morphology” value is recorded as “no change in cell morphology occurred at all concentrations”.
